In US9302999B2, “Substituted triazoles as herbicides” (E. I. DU PONT DE NEMOURS AND COMPANY, priority 2012, dated 2016):

Legend:
Type in all cases: in vivo
corn (Zea mays) = assay: Test A pre-/postemergence: corn; settings: for Corn plant response rating: Postemergence; for Plant response rating, Corn: Preemergence
Method in brief: (§1)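 Visual 0–100 injury ratings (0 no effect, 100 complete control) taken about ten days after treatment, relative to untreated controls. Preemergence treatment was a directed soil spray; postemergence plants were 2–10 cm tall at one- to two-leaf stage. Soil: loam/sand blend.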

[1] = test system: morningglory (Ipomoea spp.); assay: Test A pre-/postemergence: morningglory; settings: for Morningglory plant response rating: Postemergence; for Plant response rating, Morningglory: Preemergence
Method in brief: as §1

[2] = test system: pigweed (Amaranthus retroflexus); assay: Test A pre-/postemergence: pigweed; settings: for Pigweed plant response rating: Postemergence; for Plant response rating, Pigweed: Preemergence
Method in brief: as §1

[3] = test system: foxtail, giant (giant foxtail, Setaria faberii); assay: Test A pre-/postemergence: foxtail, giant; settings: for Foxtail, Giant plant response rating: Postemergence; for Plant response rating, Foxtail, Giant: Preemergence
Method in brief: as §1

[4] = test system: ducksalad (Heteranthera limosa); assay: Test C flooded paddy test: ducksalad; settings: scale 0 to 100 (0 no effect, 100 complete control)
Method in brief: (§2)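 Plants were grown to the 2-leaf stage, pots flooded to 3 cm above soil, and test compounds applied directly to the paddy water, with that depth held throughout. After 13 to 15 days in a greenhouse, injury was visually rated against controls on a 0 (no effect) to 100 (complete control) scale.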

[5] = test system: barnyardgrass (Echinochloa crus-galli); assay: Test A pre-/postemergence: barnyardgrass; settings: for Barnyardgrass plant response rating: Postemergence; for Plant response rating, Barnyardgrass: Preemergence
Method in brief: as §1

[6] = test system: velvetleaf (Abutilon theophrasti); assay: Test A pre-/postemergence: velvetleaf; settings: for Velvetleaf plant response rating: Postemergence; for Plant response rating, Velvetleaf: Preemergence
Method in brief: as §1

[7] = test system: sedge, umbrella (small-flower umbrella sedge, Cyperus difformis); assay: Test C flooded paddy test: sedge, umbrella; settings: scale 0 to 100 (0 no effect, 100 complete control)
Method in brief: as §2

[8] = test system: crabgrass, large (large crabgrass, Digitaria sanguinalis); assay: Test A pre-/postemergence: crabgrass, large; settings: for Crabgrass, Large plant response rating: Postemergence; for Plant response rating, Crabgrass, Large: Preemergence
Method in brief: as §1

rice (Oryza sativa) = assay: Test C flooded paddy test: rice; settings: scale 0 to 100 (0 no effect, 100 complete control)
Method in brief: as §2

[9] = test system: wheat (Triticum aestivum); assay: Test A pre-/postemergence: wheat; settings: for Wheat plant response rating: Postemergence; for Plant response rating, Wheat: Preemergence
Method in brief: as §1

[10] = test system: barnyardgrass (Echinochloa crus-galli); assay: Test C flooded paddy test: barnyardgrass; settings: scale 0 to 100 (0 no effect, 100 complete control)
Method in brief: as §2

[11] = 125 g ai/ha, 0 to 100 scale, 0 is no effect, 100 is complete control
[12] = 500 g ai/ha, visual rating on 0 to 100 scale (0 no effect, 100 complete control), approximately ten days
[13] = 125 g ai/ha, 0 to 100 scale (0 no effect, 100 complete control)
[14] = 500 g ai/ha, 0 to 100 scale, 0 is no effect, 100 is complete control
[15] = Flood (flooded paddy test), 62 g ai/ha, visual rating after 13 to 15 days
[16] = Flood (flooded paddy test), 125 g ai/ha, visual rating after 13 to 15 days
[17] = Flood (flooded paddy test), 250 g ai/ha, visual rating after 13 to 15 days

## Cc1nn(-c2ccc([N+](=O)[O-])cc2)nc1C(=O)c1cccc(C(F)(F)F)c1 [Compound 41]
Corn (Zea mays); [11]
  Corn plant response rating: 10
Corn (Zea mays); [12]
  Corn plant response rating: 20
Corn (Zea mays); [13]
  Plant response rating, Corn: 0
Corn (Zea mays); [14]
  Plant response rating, Corn: 0
[1]; [11]
  Morningglory plant response rating: 10
[1]; [12]
  Morningglory plant response rating: 10
[1]; [13]
  Plant response rating, Morningglory: 0
[1]; [14]
  Plant response rating, Morningglory: 10
[2]; [11]
  Pigweed plant response rating: 30
[2]; [12]
  Pigweed plant response rating: 80
[2]; [13]
  Plant response rating, Pigweed: 20
[2]; [14]
  Plant response rating, Pigweed: 50
[3]; [11]
  Foxtail, Giant plant response rating: 10
[3]; [12]
  Foxtail, Giant plant response rating: 20
[3]; [13]
  Plant response rating, Foxtail, Giant: 40
[3]; [14]
  Plant response rating, Foxtail, Giant: 70
[4]; [15]
  Plant response rating, Ducksalad: 0
[4]; [16]
  Plant response rating, Ducksalad: 0
[4]; [17]
  Plant response rating, Ducksalad: 0
[4]; Flood, 31 g ai/ha
  Plant response rating, Ducksalad: 0
[5]; [11]
  Barnyardgrass plant response rating: 10
[5]; [12]
  Barnyardgrass plant response rating: 10
[5]; [13]
  Plant response rating, Barnyardgrass: 10
[5]; [14]
  Plant response rating, Barnyardgrass: 20
[6]; [11]
  Velvetleaf plant response rating: 10
[6]; [12]
  Velvetleaf plant response rating: 50
[6]; [13]
  Plant response rating, Velvetleaf: 10
[6]; [14]
  Plant response rating, Velvetleaf: 10
[7]; [15]
  Plant response rating, Sedge, Umbrella: 0
[7]; [16]
  Plant response rating, Sedge, Umbrella: 0
[7]; [17]
  Plant response rating, Sedge, Umbrella: 0
[7]; Flood, 31 g ai/ha
  Plant response rating, Sedge, Umbrella: 0
[8]; [11]
  Crabgrass, Large plant response rating: 10
[8]; [12]
  Crabgrass, Large plant response rating: 30
[8]; [13]
  Plant response rating, Crabgrass, Large: 20
[8]; [14]
  Plant response rating, Crabgrass, Large: 70
Rice (Oryza sativa); [15]
  Plant response rating, Rice: 0
Rice (Oryza sativa); [16]
  Plant response rating, Rice: 0
Rice (Oryza sativa); [17]
  Plant response rating, Rice: 0
Rice (Oryza sativa); Flood, 31 g ai/ha
  Plant response rating, Rice: 0
[9]; [11]
  Wheat plant response rating: 0
[9]; [12]
  Wheat plant response rating: 10
[9]; [13]
  Plant response rating, Wheat: 0
[9]; [14]
  Plant response rating, Wheat: 0
[10]; [15]
  Plant response rating, Barnyardgrass: 0
[10]; [16]
  Plant response rating, Barnyardgrass: 0
[10]; [17]
  Plant response rating, Barnyardgrass: 0
[10]; Flood, 31 g ai/ha
  Plant response rating, Barnyardgrass: 0

## Cc1nn(-c2ccc(Cl)cc2)nc1C(=O)c1cccc(C(F)(F)F)c1 [Compound 42]
Corn (Zea mays); [11]
  Corn plant response rating: 10
Corn (Zea mays); [12]
  Corn plant response rating: 10
Corn (Zea mays); [13]
  Plant response rating, Corn: 0
Corn (Zea mays); [14]
  Plant response rating, Corn: 0
[1]; [11]
  Morningglory plant response rating: 10
[1]; [12]
  Morningglory plant response rating: 50
[1]; [13]
  Plant response rating, Morningglory: 0
[1]; [14]
  Plant response rating, Morningglory: 10
[2]; [11]
  Pigweed plant response rating: 50
[2]; [12]
  Pigweed plant response rating: 90
[2]; [13]
  Plant response rating, Pigweed: 10
[2]; [14]
  Plant response rating, Pigweed: 60
[3]; [11]
  Foxtail, Giant plant response rating: 10
[3]; [12]
  Foxtail, Giant plant response rating: 20
[3]; [13]
  Plant response rating, Foxtail, Giant: 10
[3]; [14]
  Plant response rating, Foxtail, Giant: 70
[4]; [15]
  Plant response rating, Ducksalad: 0
[4]; [17]
  Plant response rating, Ducksalad: 0
[5]; [11]
  Barnyardgrass plant response rating: 0
[5]; [12]
  Barnyardgrass plant response rating: 10
[5]; [13]
  Plant response rating, Barnyardgrass: 0
[5]; [14]
  Plant response rating, Barnyardgrass: 10
[6]; [11]
  Velvetleaf plant response rating: 10
[6]; [12]
  Velvetleaf plant response rating: 20
[6]; [13]
  Plant response rating, Velvetleaf: 0
[6]; [14]
  Plant response rating, Velvetleaf: 0
[7]; [15]
  Plant response rating, Sedge, Umbrella: 0
[7]; [17]
  Plant response rating, Sedge, Umbrella: 0
[8]; [11]
  Crabgrass, Large plant response rating: 10
[8]; [12]
  Crabgrass, Large plant response rating: 30
[8]; [13]
  Plant response rating, Crabgrass, Large: 10
[8]; [14]
  Plant response rating, Crabgrass, Large: 50
Rice (Oryza sativa); [15]
  Plant response rating, Rice: 0
Rice (Oryza sativa); [17]
  Plant response rating, Rice: 0
[9]; [11]
  Wheat plant response rating: 0
[9]; [12]
  Wheat plant response rating: 10
[9]; [13]
  Plant response rating, Wheat: 0
[9]; [14]
  Plant response rating, Wheat: 0
[10]; [15]
  Plant response rating, Barnyardgrass: 0
[10]; [17]
  Plant response rating, Barnyardgrass: 0
